Laboratory results as given in patent US20250332300A1 (priority 2024, published 2025).
Structures can show the parent of a compound that is named as a salt. Where two headings read alike, the source gives them in different places. Starred links: 1 amine or outer side, 2 acyl side, 3 side chain; linkers in the order of their positions; H or OH if unused. Positions of bridges follow the written chain, without caps; N, C: chain ends. Non-standard residues stand in square brackets, D forms with d. Residues, ends and D or L forms follow the SMILES beside them. Trp(5-OH) = N[C@@H](Cc1c[nH]c2ccc(O)cc12)C(=O)O; NMePhe(4-F) = CN[C@@H](Cc1ccc(F)cc1)C(=O)O; isoSer(2S) = O=C([C@@H](O)CN[*:1])[*:2]; NMehPhe = CN[C@@H](CCc1ccccc1)C(=O)O; NMeE = CN[C@@H](CCC(=O)O)C(=O)O; Aad = N[C@@H](CCCC(=O)O)C(=O)O; Gly(cPr) = N[C@H](C(=O)O)C1CC1; NMeK = CN[C@@H](CCCCN)C(=O)O; NMeDap = CN[C@@H](CN)C(=O)O; NMeC = CN[C@@H](CS)C(=O)O; NMeS = CN[C@@H](CO)C(=O)O; Dap = NC[C@H](N)C(=O)O; X5 = O=C(C[*:2])[*:1]

Legend:
Type in all cases: binding
mouse HER2 (23-653) [1] = target: T1, mouse HER2 (23-653) (Mus musculus, UniProt P70424); experiment: Surface plasmon resonance (SPR) for assessment of peptide affinity, mouse HER2; design: mouse HER2 (23-653) using a Cy5 labeled peptide as a probe; made in house
Excerpt: Each protein was immobilized either onto a SA sensorchip (Cytiva, BR-1005-31) or CM5 sensorchip (Cytiva, BR-1005-30) to a density of 800-2000 RU.

human HER2 (23-652) [2] = target: T2, human HER2 (23-652) (Homo sapiens, UniProt P04626); experiment: TR-FRET competition assay for peptide potency, human HER2; design: towards human HER2 (23-652) and mouse HER2 (23-653); made in house; host or cells: mammalian cells; details: read-out: huHER2 TR-FRET IC50
mouse HER2 (23-653) [3] = target: T1, mouse HER2 (23-653); experiment: TR-FRET competition assay for peptide potency, mouse HER2; design: mouse HER2 (23-653) using a Cy5 labeled peptide as a probe; made in house; host or cells: mammalian cells; details: 0.1 nM mouse HER2, 24 h incubation
human HER2 (23-652) [4] = target: T2, human HER2 (23-652); experiment: Surface plasmon resonance (SPR) for assessment of peptide affinity, human HER2; design: towards human HER2 (23-652) and mouse HER2 (23-653); made in house
Summary of the method: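 Binding kinetics fitted from sensorgrams with 280 s peptide association then 3000 s dissociation (30 uL/min), using HER2 (23-652) either directly immobilized (SA/CM5) or anti-Fc-captured; 3 M magnesium chloride used for regeneration.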

[5] = SPR, mouse HER2 extracellular domain, 25° C., 1:1 binding model, read-out: moHER2-SPR-ONC KD
[6] = TR-FRET competition with Cy5 labeled peptide probe, read-out: moHER2 TR-FRET IC50
[7] = SPR, human HER2 extracellular domain, 25° C., 1:1 binding model, read-out: huHER2-SPR-ONC KD

SMILES	Kd (mouse HER2 (23-653) [1]; [5]) [nM]	IC50 (human HER2 (23-652) [2]) [nM]	IC50 (mouse HER2 (23-653) [3]; [6]) [nM]	Kd (human HER2 (23-652) [4]; [7]) [nM]	Kd (human HER2 (23-652) [4]) [nM]	Kd (mouse HER2 (23-653) [1]) [nM]	IC50 (mouse HER2 (23-653) [3]; moHER2 TR-FRET IC50, TR-FRET competition with Cy5 labeled peptide probe) [nM]
CC(=O)NCCCC[C@H]1C(=O)N[C@@H](Cc2c[nH]c3ccc(O)cc23)C(=O)N[C@@H](Cc2c[nH]c3ccccc23)C(=O)N[C@@H](C2CC2)C(=O)N(C)[C@H](C(=O)N(C)[C@@H](Cc2ccc(F)cc2)C(N)=O)CCC(=O)NC[C@H](O)C(=O)N[C@@H](Cc2ccc(O)cc2)C(=O)N[C@@H](CO)C(=O)N(C)[C@@H](CCc2ccccc2)C(=O)N1C [Example A23, (3S,6S,9S,12S,15S,18S,21S,24S,30S)-6-((1H-indol-3-yl)methyl)-12-(4-acetamidobutyl)-N-((S)-1-amino-3-(4-fluorophenyl)-1-oxopropan-2-yl)-3-cyclopropyl-24-hydroxy-9-((5-hydroxy-1H-indol-3-yl)methyl)-21-(4-hydroxybenzyl)-18-(hydroxymethyl)-N,1,13,16-tetramethyl-2,5,8,11,14,17,20,23,27-nonaoxo-15-phenethyl-1,4,7,10,13,16,19,22,26-nonaazacyclotriacontane-30-carboxamide] ([isoSer(2S)]YS[NMehPhe][NMeK](Ac)[Trp(5-OH)]W[Gly(cPr)][NMeE][NMePhe(4-F)]-NH2; lactam N-9)	2.7	3	5.5				
CC(=O)N[C@H]1CCCC(=O)NC[C@@H](C(=O)N(C)[C@@H](Cc2ccc(F)cc2)C(N)=O)N(C)C(=O)[C@H](C2CC2)NC(=O)[C@H](Cc2c[nH]c3ccccc23)NC(=O)[C@H](Cc2c[nH]c3ccc(O)cc23)NC(=O)[C@H](CO)N(C)C(=O)[C@H](CCc2ccccc2)N(C)C(=O)[C@H](CO)NC(=O)[C@H](Cc2ccc(O)cc2)NC1=O [Example A29, (3S,6S,9S,12S,15S,18S,21S,24S,27S)-9-((1H-indol-3-yl)methyl)-27-acetamido-N-((S)-1-amino-3-(4-fluorophenyl)-1-oxopropan-2-yl)-6-cyclopropyl-12-((5-hydroxy-1H-indol-3-yl)methyl)-24-(4-hydroxybenzyl)-15,21-bis(hydroxymethyl)-N,4,16,19-tetramethyl-5,8,11,14,17,20,23,26,31-nonaoxo-18-phenethyl-1,4,7,10,13,16,19,22,25-nonaazacyclohentriacontane-3-carboxamide] (Ac-[Aad]YS[NMehPhe][NMeS][Trp(5-OH)]W[Gly(cPr)][NMeDap][NMePhe(4-F)]-NH2; lactam 1-9)	27		53	30			
CC(=O)N[C@H]1CCC(=O)NC[C@@H](C(=O)N(C)[C@@H](Cc2ccc(F)cc2)C(=O)N2CCC[C@H]2C(N)=O)N(C)C(=O)[C@H](C2CC2)NC(=O)[C@H](Cc2c[nH]c3ccccc23)NC(=O)[C@H](Cc2c[nH]c3ccc(O)cc23)NC(=O)[C@H](CO)N(C)C(=O)[C@H](CCc2ccccc2)N(C)C(=O)[C@H](CO)NC(=O)[C@H](Cc2ccc(O)cc2)NC1=O [Example A30, (3S,6S,9S,12S,15S,18S,21S,24S,27S)-9-((1H-indol-3-yl)methyl)-27-acetamido-N-((S)-1-((S)-2-carbamoylpyrrolidin-1-yl)-3-(4-fluorophenyl)-1-oxopropan-2-yl)-6-cyclopropyl-12-((5-hydroxy-1H-indol-3-yl)methyl)-24-(4-hydroxybenzyl)-15,21-bis(hydroxymethyl)-N,4,16,19-tetramethyl-5,8,11,14,17,20,23,26,30-nonaoxo-18-phenethyl-1,4,7,10,13,16,19,22,25-nonaazacyclotriacontane-3-carboxamide]	30		67	31			
CN1C(=O)[C@H](CO)NC(=O)[C@H](Cc2ccc(O)cc2)NC(=O)[C@@H](N)CCC(=O)NC[C@@H](C(=O)N(C)[C@@H](Cc2ccc(F)cc2)C(N)=O)N(C)C(=O)[C@H](C2CC2)NC(=O)[C@H](Cc2c[nH]c3ccccc23)NC(=O)[C@H](Cc2c[nH]c3ccc(O)cc23)NC(=O)[C@H](CCCCNC(=O)C(F)(F)F)N(C)C(=O)[C@@H]1CCc1ccccc1 [Example A33, (3S,6S,9S,12S,15S,18S,21S,24S,27S)-9-((1H-indol-3-yl)methyl)-27-amino-N-((S)-1-amino-3-(4-fluorophenyl)-1-oxopropan-2-yl)-6-cyclopropyl-12-((5-hydroxy-1H-indol-3-yl)methyl)-24-(4-hydroxybenzyl)-21-(hydroxymethyl)-N,4,16,19-tetramethyl-5,8,11,14,17,20,23,26,30-nonaoxo-18-phenethyl-15-(4-(2,2,2-trifluoroacetamido)butyl)-1,4,7,10,13,16,19,22,25-nonaazacyclotriacontane-3-carboxamide TFA salt]					15	23	32
CC(=O)N[C@H]1CNC(=O)CSC[C@@H](C(=O)N(C)[C@@H](Cc2ccc(F)cc2)C(N)=O)N(C)C(=O)[C@H](C2CC2)NC(=O)[C@H](Cc2c[nH]c3ccccc23)NC(=O)[C@H](Cc2c[nH]c3ccc(O)cc23)NC(=O)[C@H](CO)N(C)C(=O)[C@H](CCc2ccccc2)N(C)C(=O)[C@H](CO)NC(=O)[C@H](Cc2ccc(O)cc2)NC1=O [Example A50, (3R,6S,9S,12S,15S,18S,21S,24S,27S)-9-((1H-indol-3-yl)methyl)-27-acetamido-N—((S)-1-amino-3-(4-fluorophenyl)-1-oxopropan-2-yl)-6-cyclopropyl-12-((5-hydroxy-1H-indol-3-yl)methyl)-24-(4-hydroxybenzyl)-15,21-bis(hydroxymethyl)-N,4,16,19-tetramethyl-5,8,11,14,17,20,23,26,30-nonaoxo-18-phenethyl-1-thia-4,7,10,13,16,19,22,25,29-nonaazacyclohentriacontane-3-carboxamide] (Ac-[Dap]YS[NMehPhe][NMeS][Trp(5-OH)]W[Gly(cPr)][NMeC][NMePhe(4-F)]-NH2; linker 1-9 via X5)	122		430	117			
CC(=O)NCCCC[C@H]1C(=O)N[C@@H](Cc2c[nH]c3ccc(O)cc23)C(=O)N[C@@H](Cc2c[nH]c3ccccc23)C(=O)N[C@@H](C2CC2)C(=O)N(C)[C@H](C(=O)N(C)[C@@H](Cc2ccc(F)cc2)C(N)=O)CSCC(=O)NC[C@H](NC(C)=O)C(=O)N[C@@H](Cc2ccc(O)cc2)C(=O)N[C@@H](CO)C(=O)N(C)[C@@H](CCc2ccccc2)C(=O)N1C [Example A51, (3R,6S,9S,12S,15S,18S,21S,24S,27S)-9-((1H-indol-3-yl)methyl)-27-acetamido-15-(4-acetamidobutyl)-N-((S)-1-amino-3-(4-fluorophenyl)-1-oxopropan-2-y1)-6-cyclopropyl-12-((5-hydroxy-1H-indol-3-yl)methyl)-24-(4-hydroxybenzyl)-21-(hydroxymethyl)-N,4,16,19-tetramethyl-5,8,11,14,17,20,23,26,30-nonaoxo-18-phenethyl-1-thia-4,7,10,13,16,19,22,25,29-nonaazacyclohentriacontane-3-carboxamide] (Ac-[Dap]YS[NMehPhe][NMeK](Ac)[Trp(5-OH)]W[Gly(cPr)][NMeC][NMePhe(4-F)]-NH2; linker 1-9 via X5)	10		15	7.3			
CC(=O)N[C@H]1CCCC(=O)NC[C@@H](C(=O)N(C)[C@@H](Cc2ccc(F)cc2)C(=O)N[C@@H](CCCCNC(=O)CN2CCN(CC(=O)O)CCN(CC(=O)O)CCN(CC(=O)O)CC2)C(N)=O)N(C)C(=O)[C@H](C2CC2)NC(=O)[C@H](Cc2c[nH]c3ccccc23)NC(=O)[C@H](Cc2c[nH]c3ccc(O)cc23)NC(=O)[C@H](CCCCNC(=O)CC(=O)O)N(C)C(=O)[C@H](CCc2ccccc2)N(C)C(=O)[C@H](CO)NC(=O)[C@H](Cc2ccc(O)cc2)NC1=O [Example C19]	10		7.6	5.5			
CC(=O)NCCCC[C@H]1C(=O)N[C@@H](Cc2c[nH]c3ccc(O)cc23)C(=O)N[C@@H](Cc2c[nH]c3ccccc23)C(=O)N[C@@H](C2CC2)C(=O)N(C)[C@H](C(=O)N(C)[C@@H](Cc2ccc(F)cc2)C(=O)N[C@@H](CCCCNC(=O)CN2CCN(CC(=O)O)CCN(CC(=O)O)CCN(CC(=O)O)CC2)C(N)=O)CNC(=O)CCC[C@H](NC(C)=O)C(=O)N[C@H](Cc2ccc(O)cc2)C(=O)N[C@H](CO)C(=O)N(C)[C@@H](CCc2ccccc2)C(=O)N1C [Example C36]	472		396	107			
